Patent US5654427A, “Indolocarbazole derivatives to treat a pathological condition of the prostate” (Kyowa Hakko Kogyo Co., Ltd., priority 1995, dated 1997)
Where two headings read alike, the source gives them in different places.

How the values were obtained:
trkA = target: T1, trkA (Rattus norvegicus, UniProt P35739); test: inhibition of NGF-stimulated trk autophosphorylation (tyrosine phosphorylation) in PC12 cells, anti-phosphotyrosine Western blot; format: cell-based; details: for trk 100 nM (inhibition of phosphorylation) / trk 500 nM (inhibition of phosphorylation): NGF 50 ng/ml; for trk 500 nM (inhibition of phosphorylation): 500 nM compound; for trk 100 nM (inhibition of phosphorylation): key: +: Inhibited phosphorylation; -: Did not inhibit phosphorylation; for trk 500 nM (inhibition of phosphorylation): key: +: Inhibited phosphorylation; -: Did not inhibit phosphorylation
T1 construct: are rat pheochromocytoma cells that bear trkA; host or cells: PC12 rat pheochromocytoma cells
Protocol: Candidate compounds for the inhibition of prostate cell proliferation were selected according to their ability to inhibit the tyrosine kinase activity associated with the trks.
PC12 cells (ATCC #CRL1721) are rat pheochromocytoma cells that bear trkA and differentiate into sympathetic neurons when treated with NGF. […] Cells were incubated at 37° C. in a humidified atmosphere of 10% CO2 and 90% air. […] The cells in each culture were disrupted and cell lysates were prepared by standard techniques known to those skilled in the art. Each lysate was incubated with anti-trk antibody whereby immune complexes were formed. […] The immune complexes were collected on Protein A-Sepharose beads, separated by SDS-polyacrylamide gel electrophoresis (SDS-PAGE), and transferred to polyvinylidene difluoride (PVDF) membranes (Millipore Corp., Bedford, Mass.), using techniques well known to those skilled in the art. The membranes were incubated with anti-phosphotyrosine antibody, which binds to the tyrosine phosphorylated trks, but not to the un-phosphorylated form of trks. Proteins bound to anti-phosphotyrosine antibody were visualized with enhanced chemiluminescence (ECL, Amersham), and are shown as dark "spots" in FIG. 1.
Measurement of the autophosphorylation of trk provides a good index of trk tyrosine kinase activity, and thereby of trk stimulation.
Inhibition was indicated by the absence of a spot migrating with the trk marker shown at the left side of the figure. Partial inhibition was indicated by a spot of reduced size.

Tsu-Pr1 = test: growth inhibition of Tsu-Pr1 prostate cancer cells (calcein fluorescence); format: cell-based; details: Homo sapiens, TSU-Pr1, 72 h, read-out: Tsu-Pr1 IC50
Protocol: (§1) Throughout the experiment the Tsu-Pr1 and Du-Pro1 cells were maintained in RPMI 1640 medium (GIBCO) containing 10% fetal bovine serum (Hyclone), 2 mM glutamine, 100 U/ml penicillin, and 100 μg/ml streptomycin. The PC-3 cells were maintained in Ham's F12K medium (Irvine Scientific) containing 10% fetal bovine serum (Hyclone), 2 mM glutamine, 100 U/ml penicillin, and 100 μg/ml streptomycin. All cell lines were maintained at 37° C. in a humidified atmosphere containing 5% CO2. The DU-145 cells were maintained in minimal essential medium (Gibco), containing 10% fetal bovine serum (Hyclone), 2 mM glutamine, and no antibiotics.
(§2) Tests for growth inhibition by the candidate compounds were conducted by the following procedure. In each well of a 96-well plate (Falcon) were placed 2,500 cells in 0.1 ml of medium. The cultures were incubated overnight after which a 0.1 ml aliquot of culture medium was added to each well. […] Other control wells received medium without any K-252a derivative compounds. Incubation was continued for three days. On day three the number of cells in each well was measured using a calcein fluorescence assay (Bozyczko-Coyne et al. J. Neurosci. Meth. 50, 205-216 (1993)).
(§3) Calcein AM (Molecular Probes, Eugene, Oreg.), an analog of the viable dye fluorescein diacetate, is taken up by cells and cleaved intracellularly to fluorescent salts that are retained by intact membranes of viable cells. This method thus provides a reliable and quantitative measurement of cell survival. Calcein AM was diluted 2× in Dulbeccos phosphate buffered saline (D-PBS) to 2× the final assay concentration (6 μM) and 100 μl was added to culture wells containing 100 μl of medium. The plates were then incubated for 1 hour at 37° C. Cells were then washed 4 times with D-PBS to remove excess calcein not taken up by cells. The plate was read using a Millipore plate reading fluorimeter (Cytofluor 2350) at emission=485 nm and excitation=538 nm. After subtraction of blank values (wells containing medium but no cells), relative fluorescent values reflect a quantitative measurement of cell survival.
(§4) The number of cells in the wells containing functional derivatives was compared to the number of cells in the control wells. The concentration which inhibited cell growth by 50% was calculated and is referred to as the "IC50 ".

Du-Pro1 = test: growth inhibition of Du-Pro1 prostate cancer cells (calcein fluorescence); format: cell-based; details: Homo sapiens, 72 h, read-out: Du-Pro1 IC50
Protocol: as §1, §2, §3, §4

DU-145 = test: growth inhibition of DU-145 prostate cancer cells (calcein fluorescence); format: cell-based; details: Homo sapiens, DU-145, 72 h, read-out: DU-145 C50
Protocol: as §1, §2, §3, §4

[1] = tested on: androgen independent human prostate cancer cell lines Tsu-Pr1, DuPro-1, PC-3 and DU-145; test: growth inhibition of prostate cancer-derived cell lines, overall (calcein fluorescence); format: cell-based; details: Table 3
Protocol: as §1, §2
Calcein AM (Molecular Probes, Eugene, Oreg.), an analog of the viable dye fluorescein diacetate, is taken up by cells and cleaved intracellularly to fluorescent salts that are retained by intact membranes of viable cells. This method thus provides a reliable and quantitative measurement of cell survival. Calcein AM was diluted 2× in Dulbeccos phosphate buffered saline (D-PBS) to 2× the final assay concentration (6 μM) and 100 μl was added to culture wells containing 100 μl of medium. The plates were then incubated for 1 hour at 37° C. Cells were then washed 4 times with D-PBS to remove excess calcein not taken up by cells. The plate was read using a Millipore plate reading fluorimeter (Cytofluor 2350) at emission=485 nm and excitation=538 nm. After subtraction of blank values (wells containing medium but no cells), relative fluorescent values reflect a quantitative measurement of cell survival. […]

[2] = tested on: Dunning R-3327 AT-2.1 prostate tumor; test: inhibition of growth of Dunning R-3327 AT-2.1 prostate tumor in adult male Copenhagen rats; format: in vivo, rat; details: 3 mg/kg/day s.c.
Excerpt: The AT-2 tumor is a highly anaplastic cell line derived from the original slow-growing androgen-dependent Dunning R-3327 H rat prostate tumor (Issacs et al., Prostate 9:261-281, 1986). The AT-2 tumor model has been used to characterize other potential anti-prostatic cancer agents including linomide (Ichikawa et al., Cancer Research 52:3022-3028, 1992) and suramin (Morton et al., Prostate 17:327-336, 1990) which is undergoing evaluation in clinical trials for androgen-independentprostate cancer (Eisenberger et al., J. Natl. Can. Inst. 85: 611-621, 1993).
Experimental Protocol: Twenty-four inbred male Copenhagen rats were inoculated subcutaneously in the flank with 1×10^6 viable AT-2.1 tumor cells. All animals were allowed to develop tumors of approximately 2.7 cm^3 in size (approximately 14 days) before being randomized into three groups of 8 animals each. Group 1 received daily subcutaneous injections of vehicle alone (1 ml/kg body weight). […] All animals had their tumor sizes evaluated for a period of 16 days. Tumor volume was calculated using the formula (1×w^2)×0.5.

T1 sequence (P35739 33-799): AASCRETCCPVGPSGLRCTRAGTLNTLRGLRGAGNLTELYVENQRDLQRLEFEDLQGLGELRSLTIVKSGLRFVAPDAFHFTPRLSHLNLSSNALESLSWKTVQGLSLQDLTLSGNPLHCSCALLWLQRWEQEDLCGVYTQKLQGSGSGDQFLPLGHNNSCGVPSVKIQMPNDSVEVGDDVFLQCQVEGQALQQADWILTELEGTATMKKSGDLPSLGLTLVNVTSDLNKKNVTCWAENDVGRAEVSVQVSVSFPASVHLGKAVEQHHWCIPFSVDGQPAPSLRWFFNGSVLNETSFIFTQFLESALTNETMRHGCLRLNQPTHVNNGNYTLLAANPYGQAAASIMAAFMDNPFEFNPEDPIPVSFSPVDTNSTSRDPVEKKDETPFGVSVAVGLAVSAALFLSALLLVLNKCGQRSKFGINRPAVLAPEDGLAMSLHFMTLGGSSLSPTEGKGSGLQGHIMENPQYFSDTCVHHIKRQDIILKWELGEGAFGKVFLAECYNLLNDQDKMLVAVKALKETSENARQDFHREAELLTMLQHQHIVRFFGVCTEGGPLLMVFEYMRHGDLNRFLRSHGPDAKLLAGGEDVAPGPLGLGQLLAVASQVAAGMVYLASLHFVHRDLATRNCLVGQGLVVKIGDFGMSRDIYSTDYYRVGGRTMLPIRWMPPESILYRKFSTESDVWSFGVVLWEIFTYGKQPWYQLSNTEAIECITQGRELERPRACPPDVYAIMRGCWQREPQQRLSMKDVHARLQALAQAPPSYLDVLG

Row | trk 100 nM (inhibition of phosphorylation) (trkA; 100 nM compound) | trk 500 nM (inhibition of phosphorylation) (trkA) | IC50 (Tsu-Pr1; 3 days incubation) [nM] | Compound | other results
1 | - | + | 540 | C[S+]([O-])CC1(O)CC2OC1(C)n1c3ccccc3c3c4c(c5c6ccccc6n2c5c31)C(=O)NC4 (stereo not drawn) [Compound I-8] | 
2 | + |  | 510 | CN1CC2(CC3OC2(C)n2c4ccccc4c4c5c(c6c7ccccc7n3c6c42)C(=O)NC5)OC1=O (stereo not drawn) [Compound I-15] | 
3 | + |  | 210 | CN(C)CC1(O)CC2OC1(C)n1c3ccccc3c3c4c(c5c6ccccc6n2c5c31)C(=O)NC4 (stereo not drawn) [Compound I-16] | 
4 | - | + | 5700 | CC12OC(CC1(O)CSC1O[C@H](CO)[C@@H](O)[C@H](O)[C@H]1O)n1c3ccccc3c3c4c(c5c6ccccc6n2c5c31)CNC4=O (stereo partly drawn) [Compound I-20] | phosphorylation response (FIG. 1, spot) (trkA; 100 nM compound, NGF, Western blot FIG. 1): somewhat diminished (a smaller spot was seen)
5 | - | + |  | COC(=O)C1(O)CC2OC1(C)n1c3ccccc3c3c4c(c5c6cc(CSCc7ccco7)ccc6n2c5c31)C(=O)NC4 (stereo not drawn) [Compound I-68] | 
6 |  | + |  | COC(=O)C1(O)CC2OC1(C)n1c3ccccc3c3c4c(c5c6cc(C=NN(C)C)ccc6n2c5c31)C(=O)NC4 (stereo not drawn) [Compound I-75] | 

The remaining lines, values behind:

Row | Compound | trk 100 nM (inhibition of phosphorylation) (trkA; 100 nM compound) | trk 500 nM (inhibition of phosphorylation) (trkA) | IC50 (Tsu-Pr1; 3 days incubation) [nM] | other results
7 | COC(=O)C1(O)CC2OC1(C)n1c3ccccc3c3c4c(c5c6cc(O)ccc6n2c5c31)C(=O)NC4 (stereo not drawn) [Compound I-5] | + |  |  | IC50 (Tsu-Pr1): 70 nM; IC50 (Du-Pro1): 60 nM; IC50 (DU-145): 80 nM; potency in inhibiting prostate cell line growth, in words [1]: most potent compounds in inhibiting growth in all four cell lines; inhibiting growth of AT-2.1 tumors ([2]; approximately): 50-60%; Tumor volume Day 0 ([2]; vehicle 2.73 ± 0.50): 2.70 ± 1.06 cm^3; Tumor volume Day 3 ([2]; vehicle 6.66 ± 1.48): 5.64 ± 1.32 cm^3; Tumor volume Day 8 ([2]; vehicle 21.0 ± 3.0): 10.7 ± 2.9 cm^3; Tumor volume Day 13 ([2]; vehicle 37.3 ± 4.0): 19.8 ± 5.6 cm^3; Tumor volume Day 16 ([2]; vehicle 58.7 ± 5.0): 24.6 ± 6.2 cm^3
8 | COC(=O)C1(O)CC2OC1(C)n1c3ccccc3c3c4c(c5c6ccccc6n2c5c31)C(=O)NC4=O (stereo not drawn) [Compound I-22] | + |  | 690 | 
9 | CC12OC(CC1(O)CO)n1c3ccc(Br)cc3c3c4c(c5c6cc(Br)ccc6n2c5c31)CNC4=O (stereo not drawn) [Compound I-42] | + | + | 90 | 
10 | COC(=O)C1(O)CC2OC1(C)n1c3ccccc3c3c4c(c5c6cc(CSc7nc8ccccc8[nH]7)ccc6n2c5c31)C(=O)NC4 (stereo not drawn) [Compound I-67] | + | + |  | 
11 | COC(=O)C1(O)CC2OC1(C)n1c3ccccc3c3c4c(c5c6cc(C=NN7CCCC7)ccc6n2c5c31)C(=O)NC4 (stereo not drawn) [Compound I-69] | + | + |  | 
12 | COC(=O)C1(O)CC2OC1(C)n1c3ccccc3c3c4c(c5c6cc(C=NNc7ccccn7)ccc6n2c5c31)C(=O)NC4 (stereo not drawn) [Compound I-70] | + | + |  | 
13 | COC(=O)C1(O)CC2OC1(C)n1c3ccccc3c3c4c(c5c6cc(CSCCN(C)C)ccc6n2c5c31)C(=O)NC4 (stereo not drawn) [Compound I-71] | - | + |  | 
14 | COC(=O)C1(O)CC2OC1(C)n1c3ccccc3c3c4c(c5c6cc(CSc7nc[nH]n7)ccc6n2c5c31)C(=O)NC4 (stereo not drawn) [Compound I-72] | - | + |  | 
15 | COC(=O)C1(O)CC2OC1(C)n1c3ccccc3c3c4c(c5c6cc(C=NNC(=N)N)ccc6n2c5c31)C(=O)NC4 (stereo not drawn) [Compound I-73] | + | + |  | 
16 | COC(=O)C1(O)CC2OC1(C)n1c3ccccc3c3c4c(c5c6cc(C=NN7CCOCC7)ccc6n2c5c31)C(=O)NC4 (stereo not drawn) [Compound I-74] | + | + |  | 
17 | COC(=O)C1(O)CC2OC1(C)n1c3ccccc3c3c4c(c5c6cc(C=NN7CCN(C)CC7)ccc6n2c5c31)C(=O)NC4 (stereo not drawn) [Compound I-76] |  | + |  | 
18 | C=CCn1c2ccccc2c2c3c(c4c5ccccc5n(CC=C)c4c21)C(=O)NC3 [II-1] | - | + |  | 
19 | O=C1NCc2c1c1c3ccccc3n(CCCO)c1c1c2c2ccccc2n1CCCO [II-4] |  | + |  | 
